This passage reports Tmax and bioavailability results from ChEMBL document CHEMBL4265941, “Side effects of methotrexate therapy for rheumatoid arthritis: A systematic review” (Eur J Med Chem, 2018).

Common to all, as to type: ADME, organism-based
Data set [1] is described as follows: Tmax in RA patient at 7.5 to 25 mg, im. The conditions noted are these: human, in vivo.
Data set [2] in a line: Tmax in RA patient at 7.5 to 25 mg, po. As to conditions: human, in vivo.
The nature of data set [3]: Oral bioavailability in human. The conditions noted are these: in vivo.

Regarding `CN(Cc1cnc2nc(N)nc(N)c2n1)c1ccc(C(=O)N[C@@H](CCC(=O)O)C(=O)O)cc1` [METHOTREXATE], the Tmax – broadly, the time from dosing to the highest level – in data set [1] is 1.3 h; in data set [2], 1.5 h. In addition, the bioavailability (as a rule, the share of a dose that reaches the circulation, judged against a reference dose that is usually intravenous) in data set [3] lay in the range of 50 to 80%.
